Test results published in publication PMC9322767, “Novel Unspecific Peroxygenase from Truncatella angustata Catalyzes the Synthesis of Bioactive Lipid Mediators” (Microorganisms, 2022).
Structures can show the parent of a compound that is named as a salt. Where two headings read alike, the source gives them in different places.

Columns and labels:
TanUPO [1] = details: read-out: apparent kinetic parameters; co-substrate H2O2 2 mM; McIlvaine buffer pH 4.5
TanUPO [2] = test system: T1, TanUPO; assay: HPLC-ELSD of […],15-EET formation; format: biochemical, Truncatella angustata; details: co-substrate H2O2 (from glucose/glucose oxidase); 20 mM phosphate pH 7.0, 30 °C, 20% (v/v) acetone; sigmoidal kinetics (Hill)
T1 construct: native wild-type purified from culture of own fungal isolate; glycosylated heme-thiolate protein

Row | Compound | Km (TanUPO [1]) [µM] | Km (TanUPO [2]) [µM]
1 | CCn1c(=NN=c2sc3cc(S(=O)(=O)O)ccc3n2CC)sc2cc(S(=O)(=O)O)ccc21 [ABTS, 2,2′-azino-di(3-ethylbenzthiazoline-6-sulfonate) di-ammonium salt] | 257 | 
2 | CCCCC/C=C\C/C=C\C/C=C\C/C=C\CCCC(=O)O [arachidonic acid, (5Z,8Z,11Z,14Z)-5,8,11,14-eicosatetraenoic acid] |  | ~200
